Data as given in US12059408B2, “Treatment of cognitive impairment associated with schizophrenia” (Boehringer Ingelheim International GmbH, priority 2020, dated 2024).

What was measured:
[1] = test system: patients with mild to moderate dementia due to AD; experiment: AD trial: cognition by ADAS-Cog11, compound I vs placebo; format: in vivo, human; conditions: for Change from baseline in ADAS-Cog11 total score at Week 12, adjusted mean / Change from baseline in ADAS-Cog11 total score at Week 12, comparison vs. placebo, adjusted mean: MMRM, FAS (OC)
Excerpt: This trial was designed to investigate whether compound I either alone as monotherapy or as an add-on therapy to acetylcholinesterase inhibitors can improve cognitive symptoms in patients with AD.
The primary endpoint was change from baseline in ADAS-Cog11 (Alzheimer's Disease Assessment Scale-cognitive subscale) total score after 12-week treatment. (Lower values in the ADAS-Cog11 score indicate better cognitive function.)
• 1) Diagnosis of mild-to-moderate Alzheimer's Disease Dementia according to the recommendations from the National Institute on Aging-Alzheimer's Association workgroups on diagnostic guidelines for Alzheimer's disease. • 2) Male or female patients at least 55 years of age. Patients older than 85 years could be included based on an acceptable general health status, (e.g. concomitant diseases, physical capability to follow the required study procedures (visits etc.)) at discretion of the investigator • 3) MMSE score of 15-26 at screening (Visit 1). • 4) Concomitant use of AChEIs allowed but not required. Key Exclusion Criteria • 1) Dementia secondary to disorders other than Alzheimer's Disease Dementia. • 2) Any central nervous system disease other than AD which according to the investigator may be associated with worsening of cognition. • 3) Any suicidal behaviour in the past 2 years (i.e. actual attempt, interrupted attempt, aborted attempt, or preparatory acts or behaviour). • 4) Any suicidal ideation of type 4 or 5 in the C-SSRS in the past 3 months (i.e. active suicidal thought with intent but without specific plan, or active suicidal thought with plan and intent). • 5) Previous participation in investigational drug studies of dementia of Alzheimer's Type within three months prior to screening. Patients having received any active treatment in studies targeting disease modification of AD are excluded.
Patients eligible for the trial were randomly assigned, in a 1:1:1:1:1 ratio to either • 2 mg compound I • 5 mg compound I • 10 mg compound I • 25 mg compound I • Placebo
An MCPMod approach combined with MMRM was used to test for the proof of concept in this trial.
Patients in the FAS were analysed according to the ITT principle, i.e. according to their randomised trial medication. The FAS was used for analyses of efficacy.
The primary endpoint was the change from baseline in ADAS-Cog11 total score after 12 weeks of treatment. The analyses for PoC and dose-finding were done using the MCPmod technique for MMRM.
Model includes fixed, categorical factors of planned treatment (p-value=0.3425), analysis visit (p-value=0.7890), baseline MMSE stratification factor (≥20, <20) (p-value≤0.0001), and planned treatment by analysis visit interaction (p-value=0.7534), as well as the continuous fixed covariate of baseline value (p-value≤0.0001) and baseline value by analysis visit interaction (p-value=0.1185).

[2] = test system: patients with mild to moderate dementia due to AD; experiment: AD trial: safety (AEs, laboratory tests); format: in vivo, human; conditions: 25 mg treatment group
Procedure: This was a 12-week, multi-centre, multi-national, randomised, double-blind, double-dummy, placebo-controlled, parallel-group trial in patients with mild to moderate dementia due to AD.
(§1) The TS included all patients who were randomised and were treated with ≥1 dose of trial medication. Patients in the TS were analysed according to the actual trial medication they received at randomisation. The TS was used for analyses of safety, demographics, and baseline characteristics.
Safety assessments included the frequency of AEs, recording of vital signs, ECG measurements, standard laboratory tests, physical examination, and C-SSRS questionnaires.

[3] = Animal cognition tasks with CSF glycine and CSF compound levels; format: in vivo; conditions: animals, efficacious doses
CSF glycine [4] = experiment: as above; format: in vivo; conditions: animals
CSF glycine [5] = experiment: Proof of clinical mechanism trial in healthy volunteers; format: in vivo, human; conditions: 10 mg dose
[6] = test system: patients with schizophrenia; experiment: Phase II CIAS trial: safety (AEs, laboratory tests, PANSS, C-SSRS)
Procedure: This was a 12-week, multi-centre, multi-national, randomised, double-blind, double-dummy, placebo-controlled, parallel-group trial in patients with clinically stable schizophrenia.
as §1
Safety was assessed based on the frequency of AEs, recording of vital signs, ECG measurements, standard laboratory tests, physical examination, neurological examination, as well as PANSS and C-SSRS questionnaires.

## C[C@@H](Oc1ccc(S(C)(=O)=O)cc1C(=O)N1C[C@@H]2C[C@]2(c2cc(C(F)(F)F)on2)C1)C(F)(F)F [compound I, [5-(methylsulfonyl)-2-{[(2R)-1,1,1-trifluoropropan-2-yl]oxy}phenyl] {(1R,5R)-1-[5-(trifluoromethyl)-1,2-oxazol-3-yl]-3-azabicyclo[3.1.0]hex-3-yl}methanone]
[1]; 2 mg once daily oral
  Change from baseline in ADAS-Cog11 total score at Week 12, adjusted mean: −0.02
[1]; 2 mg
  Change from baseline in ADAS-Cog11 total score at Week 12, comparison vs. placebo, adjusted mean: 0.05
[1]; 5 mg once daily oral
  Change from baseline in ADAS-Cog11 total score at Week 12, adjusted mean: 0.23
[1]; 5 mg
  Change from baseline in ADAS-Cog11 total score at Week 12, comparison vs. placebo, adjusted mean: 0.30
[1]; 10 mg once daily oral
  Change from baseline in ADAS-Cog11 total score at Week 12, adjusted mean: 0.69
[1]; 10 mg
  Change from baseline in ADAS-Cog11 total score at Week 12, comparison vs. placebo, adjusted mean: 0.76
[1]; 25 mg once daily oral
  Change from baseline in ADAS-Cog11 total score at Week 12, adjusted mean: −0.08
[1]; 25 mg
  Change from baseline in ADAS-Cog11 total score at Week 12, comparison vs. placebo, adjusted mean: −0.02
[1]; 2 to 25 mg
  Dose-response of change from baseline in ADAS-Cog11 total score at Week 12 (MCPmod, 6 models): no dose response relation was observed
[1]; change from baseline
  Secondary and further endpoints: ADCS-ADL, CIBIC+, cognitive composite, COWAT, VFT, Coding, Digit Span Backwards: no treatment differences indicative of a benefit were found
[1]; same doses regimen as CIAS
  Improvement of cognition in patients suffering from Alzheimer's disease: ineffective
[2]
  Decrease of haemoglobin levels, maximum effect: 5.7%
[3]
  CSF levels of compound I required for efficacy: 1-2 × GlyT1 IC50
CSF glycine [4]
  Increase of CSF glycine at doses efficacious in animal cognition tasks: approximately 50%
CSF glycine [5]
  CSF glycine increase and CSF level criteria: these criteria were met by the 10 mg dose
[6]; 2 mg
  Haemoglobin, mean change from baseline at last on-treatment value: -0.2 g/L
  Haemoglobin, relative change from baseline: −0.1%
[6]; 5 mg
  Haemoglobin, mean change from baseline at last on-treatment value: -0.7 g/L
  Haemoglobin, relative change from baseline: −0.5%
[6]; 10 mg
  Haemoglobin, mean change from baseline at last on-treatment value: 3.3 g/L
  Haemoglobin, relative change from baseline: −2.3%
[6]; 25 mg
  Haemoglobin, mean change from baseline at last on-treatment value: 4.5 g/L
  Haemoglobin, relative change from baseline: −3.2%
[6]; all dose groups vs placebo
  Headache (most frequently observed AE): reported more frequently in all dose groups of compound I than placebo
[6]; all treatment groups, 12 weeks
  Deaths: no deaths
[6]; any treatment arm
  Patients reporting on-treatment AEs: Approximately 50%
[6]; compound I vs placebo
  Suicidal ideation and behaviour assessed using C-SSRS: No significant differences
[6]; in vivo
  Worsening of schizophrenia assessed by PANSS total score: no worsening of schizophrenia
